This is an account of results in patent US8093256B2, “Use of 8-substituted-6,7,8,9-tetrahydropyrimido[1,2-a] pyrimidin-4-one derivatives” (Sanofi-Aventis, priority 2003, dated 2012).

Counter-ions that a name gives are not always drawn.

Sequence of GSK3β (P49841 whole entry, species assumed): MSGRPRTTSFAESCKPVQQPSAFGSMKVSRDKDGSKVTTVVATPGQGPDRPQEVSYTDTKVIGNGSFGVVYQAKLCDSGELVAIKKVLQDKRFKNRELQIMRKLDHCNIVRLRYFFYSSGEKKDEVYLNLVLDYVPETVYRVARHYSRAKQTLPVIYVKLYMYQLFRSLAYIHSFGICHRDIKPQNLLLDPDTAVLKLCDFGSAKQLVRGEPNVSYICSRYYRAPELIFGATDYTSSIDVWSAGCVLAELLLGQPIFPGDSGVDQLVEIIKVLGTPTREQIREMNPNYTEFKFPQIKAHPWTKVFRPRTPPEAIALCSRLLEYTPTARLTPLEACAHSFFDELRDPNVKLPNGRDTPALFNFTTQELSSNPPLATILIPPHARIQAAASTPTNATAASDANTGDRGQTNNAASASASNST

One series has as its target GSK3β (Homo sapiens, UniProt P49841). As to the kind of experiment: Inhibitory activity against GSK3β (33P-ATP phosphorylation of prephosphorylated GS1 peptide, two protocols). The format is biochemical. The method, then: Inhibitory Activity of the Medicament of the Present Invention Against GSK3β Two different protocols can be used. In a first protocol: 7.5 μM of prephosphorylated GS1 peptide and 10 μM ATP (containing 300,000 cpm of 33P-ATP) were incubated in 25 mM Tris-HCl, pH 7.5, 0.6 mM DTT, 6 mM MgCl2, 0.6 mM EGTA, 0.05 mg/ml BSA buffer for 1 hour at room temperature in the presence of GSK3beta (total reaction volume: 100 microliters). In a second protocol: 4.1 μM of prephosphorylated GS1 peptide and 42 μM ATP (containing 260,000 cpm 33P-ATP) were incubated in 80 mM Mes-NaOH, pH 6.5, 1 mM Mg acetate, 0.5 mM EGTA, 5 mM 2-mercaptoethanol, 0.02% Tween 20, 10% glycerol buffer for 2 hours at room temperature in the presence of GSK3beta. Inhibitors were solubilized in DMSO (final solvent concentration in the reaction medium, 1%). The reaction was stopped with 100 microliters of a solution made of 25 g polyphosphoric acid (85% P2O5), 126 ml 85% H3PO4, H2O to 500 ml and then diluted to 1:100 before use. An aliquot of the reaction mixture was then transferred to Whatman P81 cation exchange filters and rinsed with the solution described above. Incorporated 33P radioactivity was determined by liquid scintillation spectrometry. The phosphorylated GS-1 peptide had the following sequence: NH2-[…](P)EDEE-COOH.
Regarding `O=C(CN1c2nc(-c3ccncc3)cc(=O)n2CCC1c1ccncc1)c1cccc(Br)c1` (stereo not shown) [Compound No. 15, 9-[2-(3-Bromo-phenyl)-2-oxo-ethyl]-2,8-dipyridin-4-yl-6,7,8,9-tetrahydro-pyrimido[1,2-a]pyrimidin-4-one hydrochloride (1:2)], it took 7 nM to reach half-maximal inhibition (IC50).

Tested on in a further series: not given
Assay: not given
In the case of `O=c1cc(-c2ccncc2)nc2n1CCC(c1ccccc1)N2CC(O)c1ccc(Cl)cc1` (stereo not shown) [compound 24, 9-[2-Hydroxy-2-(4-chloro-phenyl)-ethyl]-8-phenyl-2-pyridin-4-yl-6,7,8,9-tetrahydro-pyrimido[1,2-a]pyrimidin-4-one], the melting point (commonly the temperature, or range, at which the solid turns liquid) was 220 to 222 °C.
On the same count and under the same terms, next, `O=c1cc(-c2ccncc2)nc2n1CCC(c1ccccc1)N2CC(O)c1ccc(-c2ccccc2)cc1` (stereo not shown) [compound 27, 9-[2-Hydroxy-2-(4-phenyl-phenyl)-ethyl]-8-phenyl-2-pyridin-4-yl-6,7,8,9-tetrahydro-pyrimido[1,2-a]pyrimidin-4-one]: 145 to 147 °C; `O=c1cc(-c2ccncc2)nc2n1CCC(c1ccccc1)N2CC(O)c1ccc(F)cc1` (stereo not shown) [compound 26, 9-[2-Hydroxy-2-(4-fluoro-phenyl)-ethyl]-8-phenyl-2-pyridin-4-yl-6,7,8,9-tetrahydro-pyrimido[1,2-a]pyrimidin-4-one]: 201 to 203 °C; `O=c1cc(-c2ccncc2)nc2n1CCC(c1ccccc1)N2CC(O)c1cccc(Br)c1` (stereo not shown) [compound 23, 9-[2-Hydroxy-2-(3-bromo-phenyl)-ethyl]-8-phenyl-2-pyridin-4-yl-6,7,8,9-tetrahydro-pyrimido[1,2-a]pyrimidin-4-one]: 170 to 172 °C.
The same measure, in the same setting: for `O=c1cc(-c2ccncc2)nc2n1CCC(c1ccncc1)N2CC(O)c1cccc(F)c1` (stereo not shown) [compound 25, 9-[2-(3-Fluoro-phenyl)-2-hydroxy-ethyl]-2,8-dipyridin-4-yl-6,7,8,9-tetrahydro-pyrimido[1,2-a]pyrimidin-4-one] the value was 218 to 220 °C; for `O=c1cc(-c2ccncc2)nc2n1CCC(c1ccccc1)N2CC(O)c1ccc2ccccc2c1` (stereo not shown) [compound 28, 9-[2-Hydroxy-2-naphthalen-2-yl-ethyl]-8-phenyl-2-pyridin-4-yl-6,7,8,9-tetrahydro-pyrimido[1,2-a]pyrimidin-4-one], 190 to 192 °C.
